{
  "source": "paper PMC4474874",
  "about": "“Effect of JAK Inhibitors on Release of CXCL9, CXCL10 and CXCL11 from Human Airway Epithelial Cells” (PLoS ONE, 2015)",
  "key": {"BEAS-2B cells [1]": {"test_system": "BEAS-2B cells", "assay": "IL-6 release from IFNγ + TNFα-stimulated BEAS-2B cells", "type": "cell-based, human", "experimental": "(§1) In order to determine whether any of the inhibitory effects of the JAK inhibitors could be attributed to cell death, MTT assays were performed at the end of every experiment. […] In order to address this issue, the levels of IL-6 released from cells stimulated with IFNγ + TNFα were measured."}, "BEAS-2B cells [2]": {"test_system": "BEAS-2B cells", "assay": "mRNA expression of CXCL9, CXCL10 and CXCL11 in BEAS-2B cells (Taqman RT-PCR)", "type": "cell-based, human", "conditions": "BEAS-2B, 10^-6M, IFNγ or IFNγ + TNFα", "experimental": "Total RNA was extracted from cells and reverse transcribed, as described previously. Gene expression was determined by Taqman real-time PCR on a 7500 Real Time PCR system (Applied Biosystems, Life Technologies Ltd, Paisley, UK) using PCR Master Mix Reagent and ‘assays on demand’ (Applied Biosystems). HPRT1 gene expression was used as the housekeeping gene and data presented as δδCT relative to baseline.\nGene expression of CXCL9 (panels a and b), CXCL10 (panels c and d) and CXCL11 (panels e and f) were quantified by Taqman RT-PCR. Data are presented as fold change form stimulus ± SEM; n = 3 where 1 indicates the level of mRNA induced by IFNγ or IFNγ + TNFα in the absence of inhibitors."}, "[3]": {"test_system": "human primary airway epithelial cells", "assay": "Release of CXCL9, CXCL10 and CXCL11 from human primary airway epithelial cells (ELISA)", "type": "cell-based", "conditions": "human primary airway epithelial cells, IFNγ or IFNγ+TNFα", "experimental": "(§2) BEAS-2B cells (catalogue number CRL-9609) were purchased directly from American Type Culture Collection (Rockville, MD). Keratinocyte serum-free medium (K-SFM), bovine pituitary extract (BPE), and recombinant human epidermal growth factor (EGF) were purchased from Invitrogen (Paisley, UK). BEAS-2B cells were cultured in K-SFM containing 50 μg/ml BPE and 5 ng/ml EGF at 37°C in a humidified atmosphere comprising 5% (v/v) CO2 in air. Cells were cultured as monolayers in growth factor-free media for 24 h prior to stimulation. Human primary airway epithelial cells were cultured as monolayers from bronchial brushings from both male and female subjects (Table 1) and cultured in LHC-9 media (Invitrogen, Paisley, UK) in collagen (1% w/v) coated flasks. Samples were obtained from non-smokers, smokers and patients with COPD. […] The subjects were matched for age and smokers and COPD patients for smoking history (Table 1). All subjects gave informed written consent and the study was approved by the NRES London-Chelsea Research Ethics committee, study number 09/H0801/85.\n(§3) Cell-free supernatants were removed 20h post-stimulation and assayed for CXCL9, CXCL10 and CXCL11 using Duoset ELISA kits (R & D Systems Europe, Abingdon, UK) according to the manufacturer’s instructions. The detection limits of these assays are 62pg/ml, 31pg/ml, and 7.8 pg/ml respectively.\n(§4) Data are presented as mean ± SEM of ‘n’ independent determinations. Concentration-response curves were analysed by least-squares, non-linear iterative regression with the ‘Graphpad Prism’ curve fitting program (GraphPad software, San Diego, USA) and IC50 values were subsequently interpolated from curves of best-fit. Statistical differences were determined using the Kruskal–Wallis test followed by Dunn's multiple comparison test or a Wilcoxon signed rank test as appropriate. Values of P<0.05 were considered significant.\nMedia was harvested and the concentrations of CXCL9 (panels a and d), CXCL10 (panels b and e) and CXCL11 (panels c and f) were measured by ELISA. Data are presented as mean ± SEM, n = 10–13."}, "BEAS-2B cells [4]": {"test_system": "BEAS-2B cells", "assay": "Release of CXCL9, CXCL10 and CXCL11 from BEAS-2B cells (ELISA), inhibitors added 1h before stimulus", "type": "cell-based, human", "conditions": "BEAS-2B", "experimental": "as §2, §3, §4\nMedia was harvested and the concentrations of CXCL9 (panels a and d), CXCL10 (panels b and e) and CXCL11 (panels c and f) were measured by ELISA. Data are presented as mean±SEM, n = 7–8."}, "[5]": {"test_system": "human primary airway epithelial cells", "assay": "IL-6 release from IFNγ + TNFα-stimulated human primary airway epithelial cells", "type": "cell-based", "conditions": "IFNγ + TNFα", "experimental": "as §1"}},
  "data": [
    {"molecule": "C[C@@H]1C[C@H]2[C@@H]3CCC4=CC(=O)C=C[C@]4(C)[C@@]3(F)[C@@H](O)C[C@]2(C)[C@@]1(O)C(=O)CO", "note": "[dexamethasone]", "values": [
      {"measurement": "suppression of IL-6 release", "setting": "BEAS-2B cells [1]", "result": "50–70%"},
      {"measurement": "IC50", "setting": "BEAS-2B cells [1]; Homo sapiens", "result": "16 ± 8", "unit": "nM"},
      {"measurement": "effect on gene transcription of CXCL9, CXCL10 and CXCL11", "setting": "BEAS-2B cells [2]", "result": "no effect on gene transcription"},
      {"measurement": "effect on CXCR3 chemokine release", "setting": "[3]", "result": "did not suppress"},
      {"measurement": "effect on CXCL9 and CXCL11 release", "setting": "BEAS-2B cells [4]; IFNγ or IFNγ+TNFα", "result": "very limited effect"},
      {"measurement": "maximal inhibitory effect on release of CXCL10", "setting": "BEAS-2B cells [4]; IFNγ-stimulated", "result": "~ 50%"},
      {"measurement": "inhibitory effect on release of CXCL10", "setting": "BEAS-2B cells [4]; stimulation with IFNγ and TNFα together", "result": "none"},
      {"measurement": "IC50", "setting": "[5]; Homo sapiens, Epithelial cell", "result": "11 ± 7", "unit": "nM"},
      {"measurement": "suppression of IL-6 release", "setting": "[5]", "result": "50–70%"}
    ]}
  ]
}
